In PubChem BioAssay AID330 (DTP/NCI, 2004):
Where “and” joins values, the source holds several entries; their conditions need not be identical. Equal values may be shown once. Inconclusive results and toxic doses are left out. How the source made its calls: active means survival T/C of 150% or more; inactive means T/C below 125% in these data.

Test system: P388 leukemia ip, CD2F1 mice, survival T/C
Assay: NCI In Vivo Anticancer Drug Screen. Data for tumor model P388 Leukemia (intraperitoneal) in CD2F1 (CDF1) mice
Details: endpoint: median survival time, higher = longer survival
Summary of the method: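 Mice carrying the transplanted tumor received test compound or vehicle. Survival was recorded in each group, and the value is the treated-group measurement divided by that of the vehicle-treated control group.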

[1] = dose: 50.0 mg/kg/injection, schedule: Q01DX001 (ip), vehicle: Klucel (hydroxypropylcellulose) (HPC)
[2] = dose: 60.0 mg/kg/injection, schedule: Q01DX005 (ip), vehicle: Klucel + Tween-80
[3] = dose: 60.0 mg/kg/injection, schedule: Q01DX005 (ip), vehicle: saline
[4] = dose: 120.0 mg/kg/injection, schedule: Q01DX005 (ip), vehicle: saline
[5] = dose: 240.0 mg/kg/injection, schedule: Q01DX005 (ip), vehicle: saline
[6] = dose: 50.0 mg/kg/injection, schedule: Q01DX009 (ip), vehicle: Klucel (hydroxypropylcellulose) (HPC)
[7] = dose: 100.0 mg/kg/injection, schedule: Q01DX009 (ip), vehicle: Klucel (hydroxypropylcellulose) (HPC)
[8] = dose: 200.0 mg/kg/injection, schedule: Q01DX009 (ip), vehicle: Klucel (hydroxypropylcellulose) (HPC)
[9] = dose: 50.0 mg/kg/injection, schedule: Q01DX005 (ip), vehicle: saline with Tween-80
[10] = dose: 100.0 mg/kg/injection, schedule: Q01DX005 (ip), vehicle: saline with Tween-80
[11] = dose: 200.0 mg/kg/injection, schedule: Q01DX005 (ip), vehicle: saline with Tween-80
[12] = dose: 25.0 mg/kg/injection, schedule: Q01DX009 (ip), vehicle: saline with Tween-80
[13] = dose: 50.0 mg/kg/injection, schedule: Q01DX009 (ip), vehicle: saline with Tween-80
[14] = dose: 100.0 mg/kg/injection, schedule: Q01DX009 (ip), vehicle: saline with Tween-80
[15] = dose: 50.0 mg/kg/injection, schedule: Q01DX005 (ip), vehicle: Klucel (hydroxypropylcellulose) (HPC)
[16] = dose: 100.0 mg/kg/injection, schedule: Q01DX005 (ip), vehicle: Klucel (hydroxypropylcellulose) (HPC)

Measured: T/C

COC(=O)C/C(C(=O)OC)=C1\CCC2=C1N1CCCC1C2(CC(=O)OC)C(=O)OC (stereo not given)
inactive: dose: 12.5 mg/kg/injection, schedule: Q01DX001 (ip), vehicle: Klucel (hydroxypropylcellulose) (HPC) 100 % of control | dose: 25.0 mg/kg/injection, schedule: Q01DX001 (ip), vehicle: Klucel (hydroxypropylcellulose) (HPC) 99 % of control | [1] 99 % of control

C[CH2][Sn]([c]1ccccc1)[c]1ccccc1
inactive: dose: 12.5 mg/kg/injection, schedule: Q01DX009 (ip), vehicle: saline 109 % of control | dose: 25.0 mg/kg/injection, schedule: Q01DX009 (ip), vehicle: saline 114 % of control | dose: 25.0 mg/kg/injection, schedule: Q04DX003 (ip), vehicle: saline 108 % of control | dose: 50.0 mg/kg/injection, schedule: Q01DX009 (ip), vehicle: saline 114 % of control and 116 % of control | dose: 50.0 mg/kg/injection, schedule: Q04DX003 (ip), vehicle: saline 115 % of control | dose: 100.0 mg/kg/injection, schedule: Q04DX003 (ip), vehicle: saline 109 % of control

O=CC1=CSC(=C2SC=CS2)S1
inactive: dose: 15.0 mg/kg/injection, schedule: Q01DX005 (ip), vehicle: Klucel + Tween-80 95 % of control | dose: 30.0 mg/kg/injection, schedule: Q01DX005 (ip), vehicle: Klucel + Tween-80 87 % of control | dose: 60.0 mg/kg/injection, schedule: Q01DX005 (ip), vehicle: Klucel (hydroxypropylcellulose) (HPC) 101 % of control | [2] 106 % of control

CC1(C)OCC(N)[C@@H](O)CO1 (stereo not given in full)
inactive: [3] 100 % of control | [4] 96 % of control | [5] 100 % of control

Cc1cnc(C2OCCO2)c2cccc([N+](=O)[O-])c12
inactive: [6] 105 % of control | [7] 105 % of control | [8] 101 % of control

CSC(C#N)(c1ccccc1)N(C)C (stereo not given)
inactive: dose: 25.0 mg/kg/injection, schedule: Q04DX003 (ip), vehicle: suspension in saline 106 % of control | dose: 50.0 mg/kg/injection, schedule: Q04DX003 (ip), vehicle: suspension in saline 103 % of control | dose: 100.0 mg/kg/injection, schedule: Q04DX003 (ip), vehicle: saline with Tween-80 103 % of control | dose: 100.0 mg/kg/injection, schedule: Q04DX003 (ip), vehicle: suspension in saline 96 % of control

COc1ccn(CC(C)=O)c(=O)n1
inactive: [3] 100 % of control | [4] 100 % of control | [5] 100 % of control

CCOC(=O)Nc1cc2ncc(-c3ccccc3)nc2c(N)n1
inactive: dose: 50.0 mg/kg/injection, schedule: Q01DX001 (ip), vehicle: saline with Tween-80 97 % of control | dose: 100.0 mg/kg/injection, schedule: Q01DX001 (ip), vehicle: saline with Tween-80 93 % of control | dose: 200.0 mg/kg/injection, schedule: Q01DX001 (ip), vehicle: saline with Tween-80 90 % of control

CSC(=N\N=C\c1c(F)cccc1Cl)/N=C/N(C)C
inactive: dose: 60.0 mg/kg/injection, schedule: Q01DX005 (ip), vehicle: saline with Tween-80 95 % of control | dose: 120.0 mg/kg/injection, schedule: Q01DX005 (ip), vehicle: saline with Tween-80 101 % of control | dose: 240.0 mg/kg/injection, schedule: Q01DX005 (ip), vehicle: saline with Tween-80 103 % of control

COc1cc(C(NC(=O)N2C(=O)C=CC2=O)NC(=O)N2C(=O)C=CC2=O)ccc1O
inactive: [9] 106 % of control | [10] 100 % of control | [11] 100 % of control

Oc1ccccc1C=Nc1cccnc1
inactive: dose: 12.5 mg/kg/injection, schedule: Q01DX009 (ip), vehicle: saline with Tween-80 96 % of control | [12] 101 % of control | [13] 87 % of control

CN1C(=S)C(=N)OC1c1ccc(Cl)cc1Cl (stereo not given)
inactive: [2] 102 % of control | dose: 120.0 mg/kg/injection, schedule: Q01DX005 (ip), vehicle: Klucel + Tween-80 94 % of control | dose: 240.0 mg/kg/injection, schedule: Q01DX005 (ip), vehicle: Klucel + Tween-80 96 % of control

CNS(=O)(=O)c1ccc2c(c1)nc(SC)n2C
inactive: [14] 100 % of control | dose: 200.0 mg/kg/injection, schedule: Q01DX009 (ip), vehicle: saline with Tween-80 100 % of control | dose: 400.0 mg/kg/injection, schedule: Q01DX009 (ip), vehicle: saline with Tween-80 95 % of control

O=C(C[n+]1cc2ccccc2c2ccccc21)c1ccc(-c2ccccc2)cc1
inactive: dose: 6.25 mg/kg/injection, schedule: Q01DX005 (ip), vehicle: Klucel (hydroxypropylcellulose) (HPC) 104 % of control | dose: 12.5 mg/kg/injection, schedule: Q01DX005 (ip), vehicle: Klucel (hydroxypropylcellulose) (HPC) 104 % of control | dose: 25.0 mg/kg/injection, schedule: Q01DX005 (ip), vehicle: Klucel (hydroxypropylcellulose) (HPC) 110 % of control | [15] 105 % of control | [16] 109 % of control

O=C(O)c1cc(=O)c2cc3c(=O)cc(C(=O)O)[nH]c3c(Cl)c2[nH]1
inactive: [12] 96 % of control | [13] 96 % of control | [14] 100 % of control

CC(=O)NCc1cc(C)c(CBr)cc1CBr
inactive: dose: 0.78 mg/kg/injection, schedule: Q01DX009 (ip), vehicle: distilled water + Tween-80 103 % of control | dose: 1.56 mg/kg/injection, schedule: Q01DX009 (ip), vehicle: distilled water + Tween-80 107 % of control | dose: 3.12 mg/kg/injection, schedule: Q01DX009 (ip), vehicle: distilled water + Tween-80 109 % of control | dose: 6.25 mg/kg/injection, schedule: Q01DX009 (ip), vehicle: distilled water + Tween-80 116 % of control | dose: 12.5 mg/kg/injection, schedule: Q01DX009 (ip), vehicle: distilled water + Tween-80 93 % of control

CCOC(=O)NC(C)CC(C)NC(=O)OCC (stereo not given)
inactive: [1] 94 % of control | dose: 100.0 mg/kg/injection, schedule: Q01DX001 (ip), vehicle: Klucel (hydroxypropylcellulose) (HPC) 92 % of control | dose: 200.0 mg/kg/injection, schedule: Q01DX001 (ip), vehicle: Klucel (hydroxypropylcellulose) (HPC) 93 % of control

Cl.O=C([O-])C1C[SH+]C(C(O)C(O)C(O)C(O)CO)N1.O=C([O-])C1C[SH+]C(C(O)C(O)C(O)C(O)CO)N1.[Pd+2] (stereo not given)
inactive: dose: 100.0 mg/kg/injection, schedule: Q01DX001 (ip), vehicle: saline 103 % of control | dose: 200.0 mg/kg/injection, schedule: Q01DX001 (ip), vehicle: saline 104 % of control | dose: 400.0 mg/kg/injection, schedule: Q01DX001 (ip), vehicle: saline 95 % of control

O=C1CN(c2cccc(C(F)(F)F)c2)C(=O)CN1/N=C/c1ccco1
inactive: dose: 12.5 mg/kg/injection, schedule: Q01DX005 (ip), vehicle: saline with Tween-80 100 % of control | dose: 25.0 mg/kg/injection, schedule: Q01DX005 (ip), vehicle: saline with Tween-80 105 % of control | [9] 99 % of control and 100 % of control

CCOP(=O)(Nc1ccc2c(c1)Cc1c-2cc(Br)c(NC(C)=O)c1Br)OCC
inactive: [15] 94 % of control | [16] 94 % of control | dose: 200.0 mg/kg/injection, schedule: Q01DX005 (ip), vehicle: Klucel (hydroxypropylcellulose) (HPC) 96 % of control

O=C1c2cccc3c([N+](=O)[O-])ccc(c23)C(=O)N1CCc1ccccn1
inactive: [9] 101 % of control | [10] 111 % of control | [11] 96 % of control

CCCCCCCCCCC(=O)C(=O)c1ccc(O)cc1O
inactive: [6] 111 % of control | [7] 112 % of control | [8] 113 % of control

C=CC(c1ccccc1)C(O)(Cc1ccccc1)Cc1ccccc1 (stereo not given)
inactive: dose: 6.25 mg/kg/injection, schedule: Q01DX009 (ip), vehicle: DMSO 104 % of control | dose: 12.5 mg/kg/injection, schedule: Q01DX009 (ip), vehicle: DMSO 99 % of control | dose: 25.0 mg/kg/injection, schedule: Q01DX009 (ip), vehicle: DMSO 95 % of control

OCc1c(Cl)n(-c2ccccc2)c2ccccc12
inactive: dose: 100.0 mg/kg/injection, schedule: Q04DX002 (ip), vehicle: Klucel (hydroxypropylcellulose) (HPC) 96 % of control | dose: 400.0 mg/kg/injection, schedule: Q04DX002 (ip), vehicle: Klucel (hydroxypropylcellulose) (HPC) 98 % of control
